Data published in patent US20250089717A1, “FUNGICIDAL HALOMETHYL KETONES, HYDRATES AND ENOL ETHERS AND THEIR MIXTURES” (FMC CORPORATION, priority 2023, published 2025).
Where “and” joins values, the source holds several entries; their conditions need not be identical. Identical values can stand only once.

Tested on: Phakopsora pachyrhizi
Experiment: Test A: preventive spray on soybean seedlings, Asian soybean rust, visual disease rating
Type: in vivo
Settings: rate 10 ppm
Excerpt: General protocol for preparing test suspensions for Test A: the test compounds were first dissolved in acetone in an amount equal to 3% of the final volume and then suspended at the desired concentration (in ppm) in acetone and purified water (50/50 mix by volume) containing 250 ppm of the surfactant PEG400 (polyhydric alcohol esters). The resulting test suspensions were then used in Test A.
The test solution was sprayed to the point of run-off on soybean seedlings. The following day the seedlings were inoculated with a spore suspension of Phakopsora pachyrhizi (the causal agent of Asian soybean rust) and incubated in a saturated atmosphere at 22° C. for 24 h and then moved to a growth chamber at 22° C. for 8 days, after which time visual disease ratings were made.
A rating of 100 indicates 100% disease control and a rating of 0 indicates no disease control (relative to the controls).

| Compound | Test A rating (100 = 100% disease control, 0 = no disease control relative to the controls) |
| --- | --- |
| CCO/C(=C\Oc1ccc(Cn2cc(COC(=O)CC#N)nn2)cc1)C(F)(F)F [Compound 9] | 0% |
| CCO/C(=C\Oc1ccc(Cn2cc(COC(=O)COC)nn2)cc1)C(F)(F)F [Compound 10] | 0% |
| CCO/C(=C\Oc1ccc(Cn2cc(COC(=O)CC(F)(F)F)nn2)cc1)C(F)(F)F [Compound 11] | 0% |
| CCO/C(=C\Oc1ccc(Cn2cc(COC(=O)C3CCCC3)nn2)cc1)C(F)(F)F [Compound 12] | 79% |
| CCO/C(=C\Oc1ccc(Cn2cc(COC(C)=O)nn2)cc1)C(F)(F)F [Compound 37] | 100% |
| C#CCOCc1cn(Cc2ccc(O/C=C(\OCC)C(F)(F)F)cc2)nn1 [Compound 38] | 78% and 88% |
| CCO/C(=C\Oc1ccc(Cn2cc(COC(=O)C(=O)OC)cn2)cc1)C(F)(F)F [Compound 48, 1-[[1-[[4-[[(1Z)-2-ethoxy-3,3,3-trifluoro-1-propen-1-yl]oxy]phenyl]methyl]-1H-pyrazol-4-yl]methyl]2-methyl ethanedioate] | 100% |
| CCO/C(=C\Oc1ccc(Cn2cc(COC(=O)OC)cn2)cc1)C(F)(F)F [Compound 52, 1-[[4-[[(1Z)-2-ethoxy-3,3,3-trifluoro-1-propen-1-yl]oxy]phenyl]methyl]-1H-pyrazol-4-yl]methyl methyl carbonate] | 100% |
| C=CCON(CC)C(=O)c1cnn(Cc2ccc(O/C=C(\OCC)C(F)(F)F)cc2)c1 [Compound 55, ethyl 1-[[4-[[(1Z)-2-ethoxy-3,3,3-trifluoro-1-propen-1-yl]oxy]phenyl]methyl]-N-(2-propen-1-yloxy)-1H-pyrazole-4-carboxamide] | 100% |
| CCO/C(=C\Oc1ccc(Cn2cc(COCC3CC3)cn2)c(F)c1)C(F)(F)F [Compound 68] | 100% |
| CCO/C(=C\Oc1ccc(Cn2cc(COC(=O)OC)cn2)c(F)c1F)C(F)(F)F [Compound 69] | 100% |
| CCO/C(=C\Oc1ccc(Cn2cc(COC(=O)CC)cn2)c(F)c1F)C(F)(F)F [Compound 70] | 100% |
| CCO/C(=C\Oc1ccc(Cn2cc(COC(=O)C3CC3)cn2)c(F)c1F)C(F)(F)F [Compound 71] | 100% |
| CCO/C(=C\Oc1ccc(Cn2cc(COC(=O)C(C)(C)C)cn2)c(F)c1F)C(F)(F)F [Compound 72] | 100% |
| CCO/C(=C\Oc1ccc(Cn2cc(COC(=O)C(C)(C)C)cn2)c(F)c1)C(F)(F)F [Compound 73] | 100% |
| CCO/C(=C\Oc1ccc(Cn2cc(COC(=O)COC)cn2)c(F)c1F)C(F)(F)F [Compound 74] | 100% |
| CCO/C(=C\Oc1ccc(Cn2cc(COC(=O)COC)cn2)c(F)c1)C(F)(F)F [Compound 75] | 100% |
| CCO/C(=C\Oc1ccc(Cn2cc(COC(=O)C3CC3)cn2)c(F)c1)C(F)(F)F [Compound 76] | 100% |
| CCO/C(=C\Oc1ccc(Cn2cc(COC(=O)CC)cn2)c(F)c1)C(F)(F)F [Compound 77] | 100% |
| CCO/C(=C\Oc1ccc(Cn2cc(C(=O)NOCC#N)cn2)c(F)c1F)C(F)(F)F [Compound 78] | 100% |
| CCO/C(=C\Oc1ccc(Cn2cc(C(=O)NOCC(F)(F)F)cn2)c(F)c1F)C(F)(F)F [Compound 79] | 100% |
| CCO/C(=C\Oc1ccc(Cn2cc(C(=O)NOCC3CC3)cn2)c(F)c1F)C(F)(F)F [Compound 80] | 100% |
| CCO/C(=C\Oc1ccc(Cn2cc(C(=O)NOCC#N)cn2)c(F)c1)C(F)(F)F [Compound 81] | 100% |

Same assay, conditions: rate 10 ppm, read-out: Test A rating (100 = 100% disease control, 0 = no disease control relative to the controls)

| Compound | pest or weed control at 10 ppm |
| --- | --- |
| O=C(OCc1cnn(Cc2ccc(OCC3(C(F)(F)F)OCCO3)cc2)c1)C1CCCC1 [Compound 4, [1-[[4-[[2-(trifluoromethyl)-1,3-dioxolan-2-yl]methoxy]phenyl]methyl]-1H-pyrazol-4-yl]methyl cyclopentanecarboxylate] | 90% |
| CCOC(=S)c1cnn(Cc2ccc(O/C=C(\OCC)C(F)(F)F)cc2)c1 [Compound 7, O-ethyl 1-[[4-[[(1Z)-2-ethoxy-3,3,3-trifluoro-1-propen-1-yl]oxy]phenyl]methyl]-1H-pyrazole-4-carbothioate] | 100% |
| CCO/C(=C\Oc1ccc(Cn2cc(COC(=O)N(C)OC)cn2)cc1)C(F)(F)F [Compound 18, (Z)-(1-(4-((2-ethoxy-3,3,3-trifluoroprop-1-en-1-yl)oxy)benzyl)-1H-pyrazol-4-yl)methyl methoxy(methyl)carbamate] | 100% |
| CCO/C(=C\Oc1ccc(Cn2cc(COC(=O)CC)cn2)cc1)C(F)(F)F [Compound 21, [1-[[4-[[(1Z)-2-ethoxy-3,3,3-trifluoro-1-propen-1-yl]oxy]phenyl]methyl]-1H-pyrazol-4-yl]methyl propanoate] | 100% |
| CCO/C(=C\Oc1ccc(Cn2cc(COC(C)=O)cn2)cc1)C(F)(F)F [Compound 22, [1-[[4-[[(1Z)-2-ethoxy-3,3,3-trifluoro-1-propen-1-yl]oxy]phenyl]methyl]-1H-pyrazol-4-yl]methyl acetate] | 100% |
| CCO/C(=C\Oc1ccc(Cn2cc(COC(=O)COC)cn2)cc1)C(F)(F)F [Compound 23, [1-[[4-[[(1Z)-2-ethoxy-3,3,3-trifluoro-1-propen-1-yl]oxy]phenyl]methyl]-1H-pyrazol-4-yl]methyl 2-methoxyacetate] | 100% |
| CCO/C(=C\Oc1ccc(Cn2cc(COC(=O)CC(C)C)cn2)cc1)C(F)(F)F [Compound 27, [1-[[4-[[(1Z)-2-ethoxy-3,3,3-trifluoro-1-propen-1-yl]oxy]phenyl]methyl]-1H-pyrazol-4-yl]methyl 3-methylbutanoate] | 100% |
| CCCC(C)C(=O)OCc1cnn(Cc2ccc(O/C=C(\OCC)C(F)(F)F)cc2)c1 (stereo not shown) [Compound 30, [1-[[4-[[(1Z)-2-ethoxy-3,3,3-trifluoro-1-propen-1-yl]oxy]phenyl]methyl]-1H-pyrazol-4-yl]methyl 2-methylpentanoate] | 100% |
| CCO/C(=C\Oc1ccc(Cn2cc(C(=O)NOCc3ccccc3)cn2)cc1)C(F)(F)F [Compound 31, 1-[[4-[[(1Z)-2-ethoxy-3,3,3-trifluoro-1-propen-1-yl]oxy]phenyl]methyl]-N-(phenylmethoxy)-1H-pyrazole-4-carboxamide] | 100% |
| CCO/C(=C\Oc1ccc(Cn2cc(COC(=O)CC(F)(F)F)cn2)cc1)C(F)(F)F [Compound 35, [1-[[4-[[(1Z)-2-ethoxy-3,3,3-trifluoro-1-propen-1-yl]oxy]phenyl]methyl]-1H-pyrazol-4-yl]methyl 3,3,3-trifluoropropanoate] | 100% |
| C=CCON=C(OCC)c1cnn(Cc2ccc(O/C=C(\OCC)C(F)(F)F)cc2)c1 [Compound 40, ethyl 1-[[4-[[(1Z)-2-ethoxy-3,3,3-trifluoro-1-propen-1-yl]oxy]phenyl]methyl]-N-(2-propen-1-yloxy)-1H-pyrazole-4-carboximidate] | 100% |
| CCO/C(=C\Oc1ccc(Cn2cc(C(=O)NOCC(F)(F)F)cn2)cc1)C(F)(F)F [Compound 45, 1-[[4-[[(1Z)-2-ethoxy-3,3,3-trifluoro-1-propen-1-yl]oxy]phenyl]methyl]-N-(2,2,2-trifluoroethoxy)-1H-pyrazole-4-carboxamide] | 100% |
| CCO/C(=C\Oc1ccc(Cn2cc(COC(=O)C(C)C)cn2)cc1)C(F)(F)F [Compound 46, [1-[[4-[[(1Z)-2-ethoxy-3,3,3-trifluoro-1-propen-1-yl]oxy]phenyl]methyl]-1H-pyrazol-4-yl]methyl 2-methylpropanoate] | 100% |
| CCO/C(=C\Oc1ccc(Cn2cc(COC(=O)C(C)(C)C)cn2)cc1)C(F)(F)F [Compound 47, [1-[[4-[[(1Z)-2-ethoxy-3,3,3-trifluoro-1-propen-1-yl]oxy]phenyl]methyl]-1H-pyrazol-4-yl]methyl 2,2-dimethylpropanoate] | 100% |
| CCO/C(=C\Oc1ccc(Cn2cc(COC(=O)CCSC)cn2)cc1)C(F)(F)F [Compound 50, [1-[[4-[[(1Z)-2-ethoxy-3,3,3-trifluoro-1-propen-1-yl]oxy]phenyl]methyl]-1H-pyrazol-4-yl]methyl 3-(methylthio)propanoate] | 100% |
| CCOC(=O)C(OC(C)=O)c1cnn(Cc2ccc(O/C=C(\OCC)C(F)(F)F)cc2)c1 (stereo not drawn) [Compound 54, ethyl α-(acetyloxy)-1-[[4-[[(1Z)-2-ethoxy-3,3,3-trifluoro-1-propen-1-yl]oxy]phenyl]methyl]-1H-pyrazole-4-acetate] | 100% |

Same assay, conditions: rate 50 ppm, read-out: Test A rating (100 = 100% disease control, 0 = no disease control relative to the controls)

| Compound | pest or weed control at 50 ppm |
| --- | --- |
| CCO/C(=C\Oc1ccc(Cn2cc(CC(=O)N(C)OC)cn2)cc1)C(F)(F)F [Compound 5, 1-[[4-[[(1Z)-2-ethoxy-3,3,3-trifluoro-1-propen-1-yl]oxy]phenyl]methyl]-N-methoxy-N-methyl-1H-pyrazole-4-acetamide] | 94% |
